Measured values published in patent US20120121591A1 (priority 2009, published 2012).

Key:
Type in all cases: cell-based
[1] = test system: IFN-g secretion from T cells in human whole blood; conditions: read-out: WB (IFNg) IC50 (nM, Avg)
[2] = test system: IL-2 secretion from T cells in human whole blood; conditions: read-out: WB (IL-2) IC50 (nM, Avg)
[3] = biological target: hKv1.3 (Homo sapiens, UniProt P22001); experiment: cell-based; conditions: Kv1.3 (IWQ) IC50 (nM, Avg)
Sequence of hKv1.3 (P22001 whole entry): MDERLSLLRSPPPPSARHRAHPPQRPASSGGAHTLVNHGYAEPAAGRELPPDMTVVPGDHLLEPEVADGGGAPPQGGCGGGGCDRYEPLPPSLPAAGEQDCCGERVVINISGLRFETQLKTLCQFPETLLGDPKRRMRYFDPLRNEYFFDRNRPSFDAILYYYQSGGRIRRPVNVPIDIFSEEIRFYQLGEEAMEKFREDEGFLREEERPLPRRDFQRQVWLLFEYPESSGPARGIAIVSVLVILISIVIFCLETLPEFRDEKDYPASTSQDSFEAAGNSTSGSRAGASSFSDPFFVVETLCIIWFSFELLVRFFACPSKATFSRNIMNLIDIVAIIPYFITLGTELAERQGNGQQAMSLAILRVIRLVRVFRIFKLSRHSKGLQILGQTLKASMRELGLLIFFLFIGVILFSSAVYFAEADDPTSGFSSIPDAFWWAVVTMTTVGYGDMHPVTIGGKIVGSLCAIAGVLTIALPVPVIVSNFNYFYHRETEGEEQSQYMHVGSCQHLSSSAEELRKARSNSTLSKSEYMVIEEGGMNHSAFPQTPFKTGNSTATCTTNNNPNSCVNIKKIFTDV

| SMILES | IC50 [1] [nM] | IC50 [2] [nM] | IC50 [3] [nM] |
| --- | --- | --- | --- |
| CC[C@H](C)[C@@H]1NC(=O)[C@@H](NC(=O)[C@H](CO)NC(=O)[C@@H](N)CCCNC(=N)N)CSSC[C@@H](C(N)=O)NC(=O)[C@H]([C@@H](C)O)NC(=O)CNC(=O)[C@@H]2CSSC[C@@H]3NC(=O)[C@H](CCCCN)NC(=O)[C@H](Cc4ccccc4)NC(=O)[C@H](C)NC(=O)[C@H]([C@@H](C)O)NC(=O)[C@H](CSSC[C@H](NC(=O)[C@H](Cc4ccccc4)NC(=O)[C@H](CO)NC(=O)[C@H](CC(C)C)NC(=O)[C@H](CCCNC(=N)N)NC(=O)[C@H](Cc4ccc(O)cc4)NC(=O)[C@H](CCCCN)NC(=O)[C@H](Cc4c[nH]cn4)NC(=O)[C@H](CO)NC(=O)[C@H](Cc4c[nH]cn4)NC(=O)[C@H](CCCCN)NC3=O)C(=O)N[C@@H](CCCNC(=N)N)C(=O)N[C@@H](CCCCN)C(=O)N[C@@H]([C@@H](C)O)C(=O)N2)NC(=O)[C@H](CCCNC(=N)N)NC(=O)[C@H](CO)NC(=O)[C@H](CCCCN)NC(=O)[C@@H]2CCCN2C(=O)[C@H]([C@@H](C)CC)NC(=O)[C@H]([C@@H](C)O)NC(=O)[C@H](CC(=O)O)NC1=O [[Lys16, His21]ShK-amide] | 9.25 | 5.5 | 0.219 |
| CC[C@H](C)[C@@H]1NC(=O)[C@H](CO)NC(=O)[C@H](Cc2c[nH]cn2)NC(=O)[C@H](CCCCN)NC(=O)[C@@H]2CSSC[C@@H]3NC(=O)[C@H]([C@@H](C)O)NC(=O)[C@H](CCCCN)NC(=O)[C@H](CCCNC(=N)N)NC(=O)[C@H](CSSC[C@H](NC(=O)[C@H](CCCNC(=N)N)NC(=O)[C@H](CO)NC(=O)[C@H](CCCCN)NC(=O)[C@@H]4CCCN4C(=O)[C@H]([C@@H](C)CC)NC(=O)[C@H]([C@@H](C)O)NC(=O)[C@H](CC(=O)O)NC(=O)[C@H]([C@@H](C)CC)NC(=O)[C@@H](NC(=O)[C@H](CO)NC(=O)[C@@H](N)CCCNC(=N)N)CSSC[C@@H](C(N)=O)NC(=O)[C@H]([C@@H](C)O)NC(=O)CNC3=O)C(=O)N[C@@H]([C@@H](C)O)C(=O)N[C@@H](C)C(=O)N[C@@H](Cc3ccccc3)C(=O)N[C@@H](CCCCN)C(=O)N2)NC(=O)[C@H](Cc2ccccc2)NC(=O)[C@H](CO)NC(=O)[C@H](CC(C)C)NC(=O)[C@H](CCCNC(=N)N)NC(=O)[C@H](Cc2ccc(O)cc2)NC(=O)[C@H](CCCCN)NC1=O [[Lys16, Ile21]ShK-amide] | 5.77 | 2.49 | 0.14 |
| CC[C@H](C)[C@@H]1NC(=O)[C@@H](NC(=O)[C@H](CO)NC(=O)[C@@H](N)CCCNC(=N)N)CSSC[C@@H](C(N)=O)NC(=O)[C@H]([C@@H](C)O)NC(=O)CNC(=O)[C@@H]2CSSC[C@@H]3NC(=O)[C@H](CCCCN)NC(=O)[C@H](Cc4ccccc4)NC(=O)[C@H](C)NC(=O)[C@H]([C@@H](C)O)NC(=O)[C@H](CSSC[C@H](NC(=O)[C@H](Cc4ccccc4)NC(=O)[C@H](CO)NC(=O)[C@H](CC(C)C)NC(=O)[C@H](CCCNC(=N)N)NC(=O)[C@H](Cc4ccc(O)cc4)NC(=O)[C@H](CCCCN)NC(=O)[C@H](CC(C)C)NC(=O)[C@H](CO)NC(=O)[C@H](Cc4c[nH]cn4)NC(=O)[C@H](CCCCN)NC3=O)C(=O)N[C@@H](CCCNC(=N)N)C(=O)N[C@@H](CCCCN)C(=O)N[C@@H]([C@@H](C)O)C(=O)N2)NC(=O)[C@H](CCCNC(=N)N)NC(=O)[C@H](CO)NC(=O)[C@H](CCCCN)NC(=O)[C@@H]2CCCN2C(=O)[C@H]([C@@H](C)CC)NC(=O)[C@H]([C@@H](C)O)NC(=O)[C@H](CC(=O)O)NC1=O [[Lys16, Leu21]ShK-amide] | 0.636 | 0.889 | 0.213 |
